“Also recorded” adds a separate entry of the source.

As usually defined, the CLint scaled is a measure of how fast metabolising enzymes remove a compound, apart from limits set by blood flow. For orientation: amount remaining means what is left of the initial amount, in per cent. Low readings indicate a greater loss, high ones greater stability. In general, IC50 refers to the concentration that gives 50% inhibition. A high value points to weaker potency. One may read the GI50 as the concentration giving 50% growth inhibition. By AUC(0-inf) is commonly meant total exposure, with the tail of the curve extrapolated. Low values mean less exposure, high ones more exposure. What is called AUC(0-t) is the area under the concentration-time curve up to a stated or last time point. Low readings indicate less exposure, high ones more exposure. The Cmax is the peak of the concentration-time curve. Usually microsomal CLint stands for a measure of how fast metabolising enzymes remove a compound, apart from limits set by blood flow. High values mean faster metabolism, low ones greater metabolic stability.

Data set [1] is described as follows: in vitro. The note with it: human, microsomes.
The nature of data set [2]: in vitro. The note with it: Sprague-Dawley, rat, microsomes.
Data set [3] concerns the target PI3Kα (Homo sapiens, UniProt P42336). The data set is described as follows: PI3Kα enzymatic assay (Kinase-Glo Luminescent Kinase assay). The format is biochemical. (In general: Kinase-Glo reads ATP consumption through a luciferase reaction.)
Protocol: (§3) Kinase-Glo Luminescent Kinase assay (Promega) was performed to determine the PI3Kα inhibitory activity, while ADP-Glo Luminescent assay (Promega) was performed to identify the inhibitory activity against PI3Kβ, γ, or δ. The kinase buffer was composed of HEPES (50 mM, pH 7.5), MgCl2 (3 mM), EGTA (1 mM), NaCl (100 mM), CHAPS (0.03%) and DTT (2 mM). The serially diluted compound solutions (2.5 mL) were successively added to a 384-well plate. Afterwards, the solution of kinase (2.5 mL) in the kinase buffer and the solution of substrate (5 mL) in the kinase buffer containing PIP2 and ATP were added to each well of the assay plate for starting the reaction. Kinase buffer was added instead to the control well without enzyme. […] After being incubated at room temperature for 1 h, Kinase-Glo reagent (10 mL) was added to each well of the PI3Kα assay plate to quench the reaction. […] The mixture was treated briefly with centrifuge, shaken slowly, and equilibrated for 40 min. Kinase Detection reagent (10 mL) was added to each well. Before reading on a plate reader for luminescence, the resultant mixture was incubated at room temperature for 1 h. After calculating the percent inhibition from the RLU values, the curves were fitted in Graphpad Prism 5 to give IC50 values.
The target of data set [4] is PI3Kβ (Homo sapiens, UniProt P42338). As to the kind of experiment: PI3Kβ enzymatic assay (ADP-Glo Luminescent assay). The format is biochemical.
Sequence of PI3Kβ (P42338 whole entry): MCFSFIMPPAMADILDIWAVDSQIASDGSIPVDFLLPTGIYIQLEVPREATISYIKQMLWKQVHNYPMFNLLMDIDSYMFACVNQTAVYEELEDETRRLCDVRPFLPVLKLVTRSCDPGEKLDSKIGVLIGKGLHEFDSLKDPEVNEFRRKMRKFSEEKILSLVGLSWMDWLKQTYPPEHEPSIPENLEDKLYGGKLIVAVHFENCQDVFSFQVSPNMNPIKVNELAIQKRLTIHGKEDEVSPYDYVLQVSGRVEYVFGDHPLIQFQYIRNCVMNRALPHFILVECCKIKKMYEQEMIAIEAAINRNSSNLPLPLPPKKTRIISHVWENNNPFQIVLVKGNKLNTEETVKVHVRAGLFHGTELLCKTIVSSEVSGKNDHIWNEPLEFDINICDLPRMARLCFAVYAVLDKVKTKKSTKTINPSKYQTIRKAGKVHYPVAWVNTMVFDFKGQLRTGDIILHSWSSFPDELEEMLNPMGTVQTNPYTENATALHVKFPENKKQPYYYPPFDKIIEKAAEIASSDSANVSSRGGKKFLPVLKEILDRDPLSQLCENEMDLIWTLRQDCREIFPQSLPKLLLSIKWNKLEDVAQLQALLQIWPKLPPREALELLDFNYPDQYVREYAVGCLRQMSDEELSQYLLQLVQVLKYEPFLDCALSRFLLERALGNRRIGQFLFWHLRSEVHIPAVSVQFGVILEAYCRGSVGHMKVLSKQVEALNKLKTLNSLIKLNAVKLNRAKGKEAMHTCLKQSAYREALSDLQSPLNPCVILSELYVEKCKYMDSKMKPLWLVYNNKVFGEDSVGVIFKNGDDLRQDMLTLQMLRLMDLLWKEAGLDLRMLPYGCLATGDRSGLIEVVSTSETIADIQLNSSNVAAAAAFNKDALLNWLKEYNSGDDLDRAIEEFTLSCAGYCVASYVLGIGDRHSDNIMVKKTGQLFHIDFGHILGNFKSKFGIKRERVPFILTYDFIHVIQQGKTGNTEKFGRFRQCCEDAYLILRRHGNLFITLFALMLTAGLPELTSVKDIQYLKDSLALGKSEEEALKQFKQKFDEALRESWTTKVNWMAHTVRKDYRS
Sequence of PI3Kβ (P27986 whole entry partner): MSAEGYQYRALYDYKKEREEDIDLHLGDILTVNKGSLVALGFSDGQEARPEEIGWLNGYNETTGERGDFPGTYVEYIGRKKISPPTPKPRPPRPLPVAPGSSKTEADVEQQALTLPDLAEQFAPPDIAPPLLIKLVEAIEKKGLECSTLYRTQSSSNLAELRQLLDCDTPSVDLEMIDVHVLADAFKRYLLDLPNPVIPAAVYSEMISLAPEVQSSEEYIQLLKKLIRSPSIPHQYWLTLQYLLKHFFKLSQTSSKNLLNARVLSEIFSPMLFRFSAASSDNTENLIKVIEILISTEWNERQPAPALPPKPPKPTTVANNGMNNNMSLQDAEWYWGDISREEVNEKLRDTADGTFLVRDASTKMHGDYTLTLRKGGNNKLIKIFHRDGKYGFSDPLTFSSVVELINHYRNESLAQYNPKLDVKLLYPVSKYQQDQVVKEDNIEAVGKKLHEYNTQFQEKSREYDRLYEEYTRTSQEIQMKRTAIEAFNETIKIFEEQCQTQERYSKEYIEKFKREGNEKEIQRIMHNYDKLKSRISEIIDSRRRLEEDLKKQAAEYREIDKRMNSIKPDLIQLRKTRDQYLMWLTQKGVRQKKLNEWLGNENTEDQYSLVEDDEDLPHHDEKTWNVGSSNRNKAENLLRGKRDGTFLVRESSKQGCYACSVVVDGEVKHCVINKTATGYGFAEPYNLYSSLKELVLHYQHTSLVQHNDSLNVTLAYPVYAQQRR
Protocol: as §3
Data set [5] deals with PI3Kγ (Homo sapiens, UniProt P48736). The data set is described as follows: PI3Kγ enzymatic assay (ADP-Glo Luminescent assay). It counts as biochemical. The procedure:
(§1) Kinase-Glo Luminescent Kinase assay (Promega) was performed to determine the PI3Kα inhibitory activity, while ADP-Glo Luminescent assay (Promega) was performed to identify the inhibitory activity against PI3Kβ, γ, or δ. The kinase buffer was composed of HEPES (50 mM, pH 7.5), MgCl2 (3 mM), EGTA (1 mM), NaCl (100 mM), CHAPS (0.03%) and DTT (2 mM). The serially diluted compound solutions […] were successively added to a 384-well plate. Afterwards, the solution of kinase […] in the kinase buffer and the solution of substrate (5 mL) in the kinase buffer containing PIP2 and ATP were added to each well of the assay plate for starting the reaction. Kinase buffer was added instead to the control well without enzyme. The final concentrations of PI3Kα, PI3Kβ, PI3Kγ, PI3Kδ, PIP2, and ATP in corresponding kinase reaction mixture were 1.65 nM, 4.8 nM, 7.6 nM, 5.7 nM, […], respectively. After being incubated at room temperature for 1 h, Kinase-Glo reagent (10 mL) was added to each well of the PI3Kα assay plate to quench the reaction. Subsequently, the mixture needs to be mixed briefly with centrifuge and shaken slowly for 15 min before being read on a plate reader for luminescence. As for PI3Kβ, γ, or δ, reaction mixture (5 mL) was transferred to a new 384-plate and ADP-Glo reagent (5 mL) was added for stopping the reaction. The mixture was treated briefly with centrifuge, shaken slowly, and equilibrated for 40 min. Kinase Detection reagent (10 mL) was added to each well. Before reading on a plate reader for luminescence, the resultant mixture was incubated at room temperature for 1 h. After calculating the percent inhibition from the RLU values, the curves were fitted in Graphpad Prism 5 to give IC50 values.
A general note: ADP-Glo turns the ADP formed in a reaction into a luminescent signal.

Data set [6] has as its target PI3Kδ (Homo sapiens, UniProt O00329). As to the kind of experiment: PI3Kδ enzymatic assay (ADP-Glo Luminescent assay). The format is biochemical.
Protocol: as §3
Data set [7] addresses mTOR (1362-end, Millipore) (Homo sapiens, UniProt P42345). The data set is described as follows: mTOR enzymatic assay (Lance Ultra assay). The format is biochemical.
Protocol: The kinase buffer was composed of HEPES (50 mM, pH 7.5), MgCl2 (10 mM), EGTA (1 mM), MnCl2 (3 mM), Tween-20 (0.01%) and DTT (2 mM). The solution of substrate in the kinase buffer contained ULight-4E-BP1 peptide (Thr37/46, PE) and ATP. […] After being incubated at room temperature for 1 h, kinase detection buffer (10 mL) containing EDTA and Eu-anti-phospho-4E-BP1 antibody (Thr37/46, PE) was added to each well of the assay plate. Before reading on a plate reader, the mixture needs to be mixed briefly with centrifuge and then allowed to equilibrate for 1 h. After calculating the percent inhibition from Lance signal, the curves were fitted in Graphpad Prism 5 to give IC50 values.
Data set [8] relates to prostate cancer PC3 cell line. As to the kind of experiment: Anti-proliferative SRB assay, PC3. The format is cell-based. The conditions noted are these: PC3 cells, 72 h exposure. The procedure: (§2) The anti-proliferative activity of compounds was evaluated by sulforhodamin B (SRB) assay. After being cultured for 10 h, cells in 96-well plates were subjected to 72 h-exposure to serially diluted compound solutions. Cells were washed with PBS and fixed with trichloroacetic acid (10%, W/V) at 4°C for 1 h. Then, cells were successively washed with PBS, stained for 0.5 h with SRB (0.4%, dissolved in 1% acetic acid), and washed by 1% acetic acid for 5 times. Protein-bound dye was extracted with unbuffered Tris base (10 mmol). After calculating the percent inhibition from absorbance, measured at 515 nm with a multiscan spectrum (Thermo Electron Co., Vantaa, Finland), the curves were fitted in Graphpad Prism 5 to give GI50 values.

Data set [9] relates to colorectal cancer HCT116 cell line. As to the kind of experiment: Anti-proliferative SRB assay, HCT116. It counts as cell-based. The conditions noted are these: 72 h exposure. The procedure: as §2
Background: Sulforhodamine B stains cellular protein and so reports cell mass.

Data set [10] deals with phos-Akt (Ser473), phos-Akt (Thr308), phos-S6 ribosomal protein (Ser235/236), phos-4E-BP1 (Thr37/46). As to the kind of experiment: Western blot of PI3K/Akt/mTOR signaling biomarkers in PC3 cells. It counts as cell-based. The conditions noted are these: 3 h treatment. The procedure: The Western blot analysis for evaluating the capability to down-regulate phos-Akt (Ser473), phos-Akt (Thr308), phos-S6 ribosomal protein (Ser235/236), and phos-4E-BP1 (Thr37/46) in PC3 cells was performed according to the protocol disclosed in our previous study (Zhang et al., [2017a]) with a minor modification. The cells were seeded into six-well plate at 1 × 10^6 cells per well, and then incubated at 37°C (5% CO2) overnight prior to drug treatment.

Data set [11] is described as follows: Pharmacokinetic study in SD rats, oral. The format is in vivo. The conditions noted are these: Sprague-Dawley, rat, plasma, 5 mg/kg. The procedure: SD rats were utilized for the PK study of 8i following oral gavage at the dosage of 5 mg/kg, and the oral dose was formulated in a homogenous opaque suspension of 0.5% methylcellulose. This experiment was performed with the protocol disclosed in our previous work (Zhang et al., [2017b]). The study was carried out in accordance with institutional guidelines of the Animal Research Committee at Jiaxing University (log number JXU2015120812). The protocol was approved by the institution.

Data set [12] has as its target PI3Ks and mTOR. The data set is described as follows: Enzymatic activity against PI3Ks and mTOR (summary over all tested enzymes). It counts as biochemical. The conditions noted are these: PI3Kα, PI3Kβ, PI3Kγ, PI3Kδ and mTOR. The procedure:
as §1, with “After being incubated at room temperature for 1 h, Kinase-Glo reagent (10 mL) was added to each well of the PI3Kα assay plate to quench the reaction.” left out, “As for PI3Kβ, γ, or δ, reaction mixture (5 mL) was transferred to a new 384-plate and ADP-Glo reagent (5 mL) was added for stopping the reaction. The mixture was treated briefly with centrifuge, shaken slowly, and equilibrated for 40 min. Kinase Detection reagent (10 mL) was added to each well.” left out, “After calculating the percent inhibition from the RLU values, the curves were fitted in Graphpad Prism 5 to give IC50 values.” left out
Lance Ultra assay was performed to determine the mTOR (1362-end, Millipore) inhibitory activity. […] Before reading on a plate reader, the mixture needs to be mixed briefly with centrifuge and then allowed to equilibrate for 1 h. […]

Data set [13] can be described thus: Liver microsomal stability assay, HLM. The conditions noted are these: human, liver microsomes.
The nature of data set [14]: Liver microsomal stability assay, RLM. The note with it: Sprague-Dawley, rat, liver microsomes.

Sequence of PI3Kα (P42336 whole entry): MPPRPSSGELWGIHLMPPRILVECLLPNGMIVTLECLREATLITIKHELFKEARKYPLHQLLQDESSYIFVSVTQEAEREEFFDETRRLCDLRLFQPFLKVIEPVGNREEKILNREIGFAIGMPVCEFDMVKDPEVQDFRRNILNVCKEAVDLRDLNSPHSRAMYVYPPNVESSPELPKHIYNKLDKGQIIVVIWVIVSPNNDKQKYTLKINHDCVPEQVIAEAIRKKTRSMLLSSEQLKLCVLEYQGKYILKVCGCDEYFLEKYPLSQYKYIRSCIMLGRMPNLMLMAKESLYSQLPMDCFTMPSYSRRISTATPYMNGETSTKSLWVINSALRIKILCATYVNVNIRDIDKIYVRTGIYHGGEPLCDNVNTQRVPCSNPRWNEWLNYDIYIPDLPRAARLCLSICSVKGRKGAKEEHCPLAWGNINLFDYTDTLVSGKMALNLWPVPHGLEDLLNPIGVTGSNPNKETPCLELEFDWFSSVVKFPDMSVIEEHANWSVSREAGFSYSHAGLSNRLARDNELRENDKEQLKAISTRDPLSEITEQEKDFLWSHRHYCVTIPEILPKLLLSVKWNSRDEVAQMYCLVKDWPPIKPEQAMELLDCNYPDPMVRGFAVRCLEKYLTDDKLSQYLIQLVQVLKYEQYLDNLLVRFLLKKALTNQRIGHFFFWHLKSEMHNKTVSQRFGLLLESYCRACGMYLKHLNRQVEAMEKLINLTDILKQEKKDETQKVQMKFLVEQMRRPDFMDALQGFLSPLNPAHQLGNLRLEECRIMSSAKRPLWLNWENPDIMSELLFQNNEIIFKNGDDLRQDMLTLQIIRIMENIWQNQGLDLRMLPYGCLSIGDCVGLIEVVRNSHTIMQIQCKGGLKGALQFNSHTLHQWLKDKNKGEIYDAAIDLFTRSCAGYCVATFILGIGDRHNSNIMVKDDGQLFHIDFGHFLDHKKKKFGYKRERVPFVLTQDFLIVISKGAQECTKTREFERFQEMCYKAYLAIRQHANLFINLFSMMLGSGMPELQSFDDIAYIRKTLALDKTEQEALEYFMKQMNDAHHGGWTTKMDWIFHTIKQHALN
Sequence of PI3Kα (P27986 whole entry partner): as the sequence (P27986 whole entry partner) above
Sequence of mTOR (1362-end, Millipore) (P42345 1362-2549 limits assumed): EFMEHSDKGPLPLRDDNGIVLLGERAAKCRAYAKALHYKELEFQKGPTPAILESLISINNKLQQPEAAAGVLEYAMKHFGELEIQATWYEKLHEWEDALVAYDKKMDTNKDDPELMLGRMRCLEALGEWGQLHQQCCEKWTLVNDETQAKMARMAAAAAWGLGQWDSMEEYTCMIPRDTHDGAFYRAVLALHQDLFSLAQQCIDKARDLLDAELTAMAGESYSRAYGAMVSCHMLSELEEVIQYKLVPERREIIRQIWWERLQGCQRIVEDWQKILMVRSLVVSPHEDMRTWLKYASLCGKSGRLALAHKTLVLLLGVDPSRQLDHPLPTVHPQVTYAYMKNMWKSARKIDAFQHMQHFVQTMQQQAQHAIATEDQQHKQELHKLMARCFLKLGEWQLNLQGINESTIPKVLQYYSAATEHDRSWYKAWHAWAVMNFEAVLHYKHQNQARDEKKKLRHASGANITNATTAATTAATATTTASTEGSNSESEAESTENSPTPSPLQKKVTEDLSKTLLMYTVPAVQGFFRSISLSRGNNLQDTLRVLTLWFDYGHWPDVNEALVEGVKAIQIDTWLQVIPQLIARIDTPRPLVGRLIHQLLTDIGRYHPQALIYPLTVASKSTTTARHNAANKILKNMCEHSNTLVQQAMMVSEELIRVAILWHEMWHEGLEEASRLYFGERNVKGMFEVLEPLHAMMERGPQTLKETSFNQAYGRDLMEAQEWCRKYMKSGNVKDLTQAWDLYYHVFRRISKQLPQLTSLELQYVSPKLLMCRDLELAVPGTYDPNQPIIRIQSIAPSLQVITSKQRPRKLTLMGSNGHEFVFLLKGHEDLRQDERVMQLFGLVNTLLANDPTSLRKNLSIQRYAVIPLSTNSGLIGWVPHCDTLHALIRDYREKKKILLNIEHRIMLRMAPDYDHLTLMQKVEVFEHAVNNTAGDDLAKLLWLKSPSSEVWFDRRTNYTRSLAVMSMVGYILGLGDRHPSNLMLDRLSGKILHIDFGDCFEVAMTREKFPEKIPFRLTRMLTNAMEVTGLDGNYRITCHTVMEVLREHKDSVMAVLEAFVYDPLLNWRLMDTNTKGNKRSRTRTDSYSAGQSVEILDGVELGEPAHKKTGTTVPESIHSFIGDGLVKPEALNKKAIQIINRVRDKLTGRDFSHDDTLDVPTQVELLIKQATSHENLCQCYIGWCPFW

Take `C[C@]12CC[C@H]3[C@@H](CCC4=CC(=O)CC[C@@]43C)[C@@H]1CC[C@@H]2O` [Testosterone]: in data set [1], the CLint scaled stood at 91.1 mL/min/kg and the share remaining at 1 h came out at 4.8%. In data set [2], the CLint scaled was 3780 mL/min/kg.

Turning to `COc1ncc(-c2ccc3nccc(/C=C/C(=O)N4CCN(C)CC4)c3c2)cc1NS(=O)(=O)c1ccc(F)cc1F` [8i, (E)-2,4-difluoro-N-(2-methoxy-5-(4-(3-(4-methylpiperazin-1-yl)-3-oxoprop-1-en-1-yl)quinolin-6-yl)pyridin-3-yl)benzenesulfonamide], the IC50 in [3] stood at 0.5 nM; in [4] it was 1.5 nM; in data set [5], 0.55 nM; in data set [6], 1 nM; in data set [7], 1.3 nM. Moreover, the GI50 in data set [8] (Homo sapiens, PC-3, 72 h) is below 500 nM; in [8], 400 nM; in [9] (Homo sapiens, HCT-116, HCT116 cells), 470 nM. In addition, in data set [9] (HCT116 cells), the “GI50 HCT116” value is given as “sub-micromolar”. For the same molecule, in data set [10], the “effect on the level of phos-Akt (Ser473) compared with GSK2126458” value was “stronger”. The “down-regulation of phos-Akt (Ser473), phos-Akt (Thr308), phos-S6 ribosomal protein (Ser235/236) and phos-4E-BP1 (Thr37/46)” value in data set [10] (at a concentration as low as 5 nM) was “dramatically down-regulated; also recorded: remarkably down-regulated”. The AUC(0-inf) in [11] amounted to 412 ng·h/mL. The AUC(0-t) in data set [11] was found to be 379 ng·h/mL. This molecule also yielded a Cmax in data set [11] of 249 ng/mL. The half-life is 1.73 h in data set [11] (read-out: elimination half-life t1/2 (converted)), 1.25 h in data set [13] and above 2.42 h in data set [14]. In addition, the “IC50 values against all the tested enzymes” value in [12] was “sub-nanomolar or low nanomolar level”. The CLint scaled in data set [13] was 16.6 mL/min/kg; in data set [14], below 17.3 mL/min/kg. The microsomal CLint in data set [13] was 18.5 µL/min/mg; in data set [14], below 9.6 µL/min/mg. Moreover, the share remaining at 1 h in [13] was found to be 57.1%; in data set [14], 72.8%.

These data come from paper PMC6491818, “Novel 4-Acrylamido-Quinoline Derivatives as Potent PI3K/mTOR Dual Inhibitors: The Design, Synthesis, and in vitro and in vivo Biological Evaluation” (Frontiers in Chemistry, 2019).
